Source: patent US11753409B2, “Crystalline salts of a B-RAF kinase inhibitor” (Xynomic Pharmaceuticals, Inc., priority 2017, dated 2023)
“Also recorded” adds a separate entry of the source. Like-named read-outs stand apart in the source and are kept apart here.

Columns and labels:
[1] = Pharmacokinetics following oral administration to rats; assay type: in vivo, HsdHan:WIST Norway rats; conditions: rat; for AUD: AUD range 0-24 h
Procedure: The pharmacokinetics of N-(3-(5-((1-ethylpiperidin-4-yl)(methyl)amino)-3-(pyrimidin-5-yl)-1H-pyrrolo[3,2-b]pyridin-1-yl)-2,4-difluorophenyl)propane-1-sulfonamide hydrochloride salt and N-(3-(5-((1-ethylpiperidin-4-yl)(methyl)amino)-3-(pyrimidin-5-yl)-1H-pyrrolo[3,2-b]pyridin-1-yl)-2,4-difluorophenyl)propane-1-sulfonamide […] following oral administration at 40 mg and 80 mg (dose calculated as the free base) to HsdHan:WIST Norway rats. Each salt was administered to 3 animals.

[2] = Sorption-desorption (DVS) of the salts with XRPD before and after; assay type: physicochemical
Procedure: Dynamic Vapor Sorption (DVS) was performed in a IGAsorp Water Sorption Analyzer from Hiden Isochema. Adsorption and desorption isotherms were performed at 25° C. with 10% RH step intervals ranging from 0% relative humidity up to 90% relative humidity.

[3] = Equilibrium solubility in various aqueous media (solubility after 2 h); assay type: physicochemical; conditions: for solubility at 2 h: thermodynamic from solid
Procedure: Saturated solutions are prepared in well plates by adding an appropriate volume of selected aqueous media (typically in the range of 0.25-1.5 mL) into each well which contains a known quantity of solid drug substance (typically in the range 0.5-5.0 mg). The wells are shaken or stirred for a predefined time period (typically in a range of 2-24 h) and then filtered using appropriate filter membranes (typically PTFE-filters with 0.45 μm pore size). Filter absorption is avoided by discarding the first few drops of filtrate. The amount of dissolved drug substance is determined by UV spectroscopy. In addition, the pH of the aqueous saturated solution is measured using a glass-electrode pH meter.
The equilibrium solubility of N-(3-(5-((1-Ethylpiperidin-4-yl)(methyl)amino)-3-(pyrimidin-5-yl)-1H-pyrrolo[3,2-b]pyridin-1-yl)-2,4-difluorophenyl)propane-1-sulfonamide monohydrochloride salt in various media was determined.
The solubility of N-(3-(5-((1-Ethylpiperidin-4-yl)(methyl)amino)-3-(pyrimidin-5-yl)-1H-pyrrolo[3,2-b]pyridin-1-yl)-2,4-difluorophenyl)propane-1-sulfonamide monosuccinate salt in various media was determined.

[4] = Intrinsic dissolution rate, rotating disc method; assay type: physicochemical
Procedure: The intrinsic dissolution rate of 3-(5-((1-ethylpiperidin-4-yl)(methyl)amino)-3-(pyrimidin-5-yl)-1H-pyrrolo[3,2-b]pyridin-1-yl)-2,4-difluorophenyl)propane-1-sulfonamide salts was determined in aqueous media covering a range of pH 1.1-7.4 using the rotating disc method which maintains a constant surface area.
The drug substance (5 mg) was compressed at 356.1 Newtons for 60 s to form a disk. These disks were mounted to sample holders which fit into a miniaturized dissolution testing apparatus. The dissolution media were stirred at 200 rpm at a temperature of 37° C. Samples were automatically withdrawn every second minute from the dissolution vessel and assayed by UV spectrophotometry.
The intrinsic dissolution rate of N-(3-(5-((1-ethylpiperidin-4-yl)(methyl)amino)-3-(pyrimidin-5-yl)-TH-pyrrolo[3,2-b]pyridin-1-yl)-2,4-difluorophenyl)propane-1-sulfonamide monohydrochloride salt in various media was measured in media at various pH values.
The intrinsic dissolution rate of N-(3-(5-((1-ethylpiperidin-4-yl)(methyl)amino)-3-(pyrimidin-5-yl)-1H-pyrrolo[3,2-b]pyridin-1-yl)-2,4-difluorophenyl)propane-1-sulfonamide monosuccinate salt in various media was measured in media at various pH values.

[5] = Milling and compression stress followed by XRPD; assay type: physicochemical
Procedure: FIG. 20 is a plot of the XRPD of N-(3-(5-((1-ethylpiperidin-4-yl)(methyl)amino)-3-(pyrimidin-5-yl)-1H-pyrrolo[3,2-b]pyridin-1-yl)-2,4-difluorophenyl)propane-1-sulfonamide monohydrochloride salt following milling in a swing mill for 10 min. at 30 rps.
FIG. 21 is a plot of the XRPD of N-(3-(5-((1-ethylpiperidin-4-yl)(methyl)amino)-3-(pyrimidin-5-yl)-1H-pyrrolo[3,2-b]pyridin-1-yl)-2,4-difluorophenyl)propane-1-sulfonamide monohydrochloride salt following compression at 2000 N for 1 s to a tablet (diameter-5 mm).
FIG. 31 is a plot of the XRPD of N-(3-(5-((1-ethylpiperidin-4-yl)(methyl)amino)-3-(pyrimidin-5-yl)-1H-pyrrolo[3,2-b]pyridin-1-yl)-2,4-difluorophenyl)propane-1-sulfonamide monosuccinate salt following milling in a swing mill for 10 min. at 30 rps.
FIG. 32 is a plot of the XRPD of N-(3-(5-((1-ethylpiperidin-4-yl)(methyl)amino)-3-(pyrimidin-5-yl)-1H-pyrrolo[3,2-b]pyridin-1-yl)-2,4-difluorophenyl)propane-1-sulfonamide monosuccinate salt following compression at 2000 N for 1 s to a tablet (diameter-5 mm).

[6] = Intrinsic dissolution rate, rotating disc method; assay type: physicochemical; conditions: pH of medium 1.0 (0.1M HCl), 37° C.

## CCCS(=O)(=O)Nc1ccc(F)c(-n2cc(-c3cncnc3)c3nc(N(C)C4CCN(CC)CC4)ccc32)c1F.O=C(O)CCC(=O)O [Monosuccinate Salt, N-(3-(5-((1-Ethylpiperidin-4-yl)(methyl)amino)-3-(pyrimidin-5-yl)-1H-pyrrolo[3,2-b]pyridin-1-yl)-2,4-difluorophenyl)propane-1-sulfonamide monosuccinate salt]
[1]; 40 mg/kg oral
  AUD: 30.3 µM·h
[1]; 80 mg/kg oral
  AUD: 25.1 µM·h
[1]; HsdHan:WIST, in vivo, 40 mg/kg oral
  Tmax: 2 h
[1]; HsdHan:WIST, in vivo, 80 mg/kg oral
  Tmax: 2.7 h
[1]; HsdHan:WIST, plasma, po, 40 mg/kg dose
  bioavailability: 50%
[1]; HsdHan:WIST, plasma, 40 mg/kg oral
  Cmax: 6550 nM
[1]; HsdHan:WIST, plasma, 80 mg/kg oral
  Cmax: 3520 nM
[1]; HsdHan:WIST, in vivo, po, 40 mg/kg, Time 24.0, 40 mg/kg oral, mean n = 3, read-out: Blood Plasma Concentrations
  concentration at 24 h: 3.98 nM
[1]; HsdHan:WIST, in vivo, po, 80 mg/kg, Time 24.0, 80 mg/kg oral, mean n = 3, read-out: Blood Plasma Concentrations
  concentration at 24 h: 5.09 nM
[1]; Time 0.5, 40 mg/kg oral, mean n = 3, read-out: Blood Plasma Concentrations
  concentration at 24 h: 523 nM
[1]; Time 0.5, 80 mg/kg oral, mean n = 3, read-out: Blood Plasma Concentrations
  concentration at 24 h: 274 nM
[1]; Time 1.0, 40 mg/kg oral, mean n = 3, read-out: Blood Plasma Concentrations
  concentration at 24 h: 1320 nM
[1]; Time 1.0, 80 mg/kg oral, mean n = 3, read-out: Blood Plasma Concentrations
  concentration at 24 h: 638 nM
[1]; Time 2.0, 40 mg/kg oral, mean n = 3, read-out: Blood Plasma Concentrations
  concentration at 24 h: 6550 nM
[1]; Time 2.0, 80 mg/kg oral, mean n = 3, read-out: Blood Plasma Concentrations
  concentration at 24 h: 3380 nM
[1]; Time 4.0, 40 mg/kg oral, mean n = 3, read-out: Blood Plasma Concentrations
  concentration at 24 h: 3860 nM
[1]; Time 4.0, 80 mg/kg oral, mean n = 3, read-out: Blood Plasma Concentrations
  concentration at 24 h: 2620 nM
[1]; Time 6.0, 40 mg/kg oral, mean n = 3, read-out: Blood Plasma Concentrations
  concentration at 24 h: 1140 nM
[1]; Time 6.0, 80 mg/kg oral, mean n = 3, read-out: Blood Plasma Concentrations
  concentration at 24 h: 1420 nM
[1]; oral
  Exposure values compared with the monohydrochloride salt: substantially higher
[2]; XRPD before and after, monosuccinate salt
  Change in structure (XRPD) after sorption-desorption experiment: no change in crystallinity or polymorphic form; also recorded: no significant change in structure occurred
[2]; range from 0-80% relative humidity
  Reversible weight gain (isotherm sorption-desorption): approximately 0.25%
[2]; range from 0-90% relative humidity
  Reversible weight gain (isotherm sorption-desorption): approximately 0.4%
[2]; range from 10-90% relative humidity, scale-up sample
  Weight gain (sorption-desorption): approximately 1.2%
[3]; 0.01 M HCl, simulated gastric fluid, HCl (0.01M)
  solubility at 2 h: > 50 µg/mL
[3]; 0.1 M HCl, simulated gastric fluid, HCl (0.1M)
  solubility at 2 h: 200 µg/mL
[3]; a number of media tested
  Solubility compared with the monohydrochloride salt: substantially higher
[3]; aqueous buffer, 0.1M Citric acid
  solubility at 2 h: > 5000 µg/mL
[3]; aqueous buffer, Acetate Buffer (pH 5.0)
  solubility at 2 h: > 5000 µg/mL
[3]; aqueous buffer, McIlvaine Buffer (pH 2.2)
  solubility at 2 h: > 5000 µg/mL
[3]; aqueous buffer, McIlvaine Buffer (pH 3.0)
  solubility at 2 h: > 5000 µg/mL
[3]; aqueous buffer, McIlvaine Buffer (pH 4.0)
  solubility at 2 h: > 5000 µg/mL
[3]; aqueous buffer, McIlvaine Buffer (pH 4.5)
  solubility at 2 h: > 5000 µg/mL
[3]; aqueous buffer, McIlvaine Buffer (pH 5.0)
  solubility at 2 h: > 5000 µg/mL
[3]; aqueous buffer, McIlvaine Buffer (pH 6.0)
  solubility at 2 h: 3700 µg/mL
[3]; aqueous buffer, McIlvaine Buffer (pH 6.8)
  solubility at 2 h: > 5000 µg/mL
[3]; aqueous buffer, McIlvaine Buffer (pH 7.4)
  solubility at 2 h: 300 µg/mL
[3]; aqueous buffer, Phosphate Buffer (pH 6.8)
  solubility at 2 h: > 5000 µg/mL
[3]; aqueous buffer, Sorensen Buffer (pH 9.0)
  solubility at 2 h: 1 µg/mL
[3]; aqueous buffer, Sorensen Buffer (pH 11)
  solubility at 2 h: 50 µg/mL
[3]; Simulated intestinal fluid (FaSSIF)
  solubility at 2 h: 3 µg/mL
[3]; Simulated intestinal fluid (FeSSIF)
  solubility at 2 h: 400 µg/mL
[3]; water
  solubility at 2 h: > 2000 µg/mL
[4]
  Intrinsic dissolution rate compared with the monohydrochloride salt: substantially higher
[4]; pH of medium 2.2, 37° C.
  Intrinsic Dissolution Rate: 6844 μg/cm^2/min.
[4]; pH of medium 3.0, 37° C.
  Intrinsic Dissolution Rate: 6605 μg/cm^2/min.
[4]; pH of medium 4.5, 37° C.
  Intrinsic Dissolution Rate: 2457 μg/cm^2/min.
[4]; pH of medium 6.8, 37° C.
  Intrinsic Dissolution Rate: 2533 μg/cm^2/min.
[4]; pH of medium 7.4, 37° C.
  Intrinsic Dissolution Rate: <1 μg/cm^2/min.
[5]; 2000 N for 1 s to a tablet (diameter 5 mm)
  Crystallinity and polymorphic form after compression (XRPD): no significant decrease in crystallinity or change in polymorphic form
[5]; swing mill for 10 min. at 30 rps
  Crystallinity and polymorphic form after milling (XRPD): slight decrease in crystallinity but no change in polymorphic form
[6]
  Intrinsic Dissolution Rate: 201 μg/cm^2/min.
